How the values were obtained:
[1] = tested on: 3T3-L1 murine fibroblasts; assay: MTT cell viability, 3T3-L1; assay type: cell-based; conditions: Mus musculus, non-tumoural cells, 72 h exposure, mean ± SD, read-out: Antiproliferative activity IC50, 3T3-L1
Source text: (§1) The six cell lines used in this work were purchased from American Type Culture Collection (ATCC, Manassas, VA). MCF-7 human breast cancer cells, oestrogen receptor (ER) positives, were maintained in Dulbecco’s Modified Eagle’s Medium/Nutrient Mixture F-12 Ham (DMEM/F12), supplemented with 5% foetal bovine serum (FBS) and 100 U/ml penicillin/streptomycin, as previously described. MDA-MB-231, human breast cancer cells, oestrogen receptor (ER) negative, were maintained in Dulbecco’s Modified Eagle’s Medium/Nutrient Mixture F-12 Ham (DMEM/F12), supplemented with 5% Newborn Calf Serum (NCS) and 100 U/ml penicillin/streptomycin. HeLa human epithelial cervix carcinoma cells, oestrogen receptor (ER) negative, and ISHIKAWA human endometrial adenocarcinoma cell, oestrogen receptor positive, were maintained in minimum essential medium (MEM), supplemented with 10% FBS, 100 U/ml penicillin/streptomycin and 1% non-essential amino acid. 3T3-L1 cells line of murine fibroblasts of embryonic type, were maintained in DMEM, supplemented with 10% NCS and 100 U/ml penicillin/streptomycin. MCF-10A human mammary epithelial cells were cultured in DMEM/F12 medium, supplemented with 5% horse serum (HS) (Eurobio, Les Ullis, Cedex, France), 100 U/ml penicillin/streptomycin, […] hydrocortisone, 20 ng/ml hEGF (human epidermal growth factor), 10 μg/ml insulin and […] cholera enterotoxin (Sigma-Aldrich, Milano, Italy). Cells were maintained at 37 °C in a humidified atmosphere of 95% air and 5% CO2 and periodically screened for contamination.
(§2) MDA-MB-231, MCF-7, HeLa and ISHIKAWA cells were grown in complete medium and, before being treated, they were serum deprived for 24 h, to allow cell cycle synchronisation. Then cells were grown in phenol red-free medium supplemented with 1% DCC (destran-coated charcoal treated) FBS, then treated with increasing concentrations (0.1, 1, 10, 20, 40, 100 µM) of each compound for 72 h. Compounds were dissolved in dimethylsulphoxide (DMSO) (Sigma, St. Louis, MO) and diluted in each cell medium. Untreated cells, used as a control, were added with DMSO alone (final concentration 0.1%). Cell viability was assessed using the 3-[4,5-dimethylthiazol-2-yl]-2,5-diphenyltetrazolium bromide reagent (MTT), according to the protocol from manufacturer (Sigma-Aldrich, Milan, Italy), as previously described[37] ^, [38]. For each sample, the mean absorbance, measured at 570 nm, was expressed as a percentage of the control and plotted versus drug concentration to determine for each cell line the IC50 values (namely, drugs concentrations able to reduce cell viability of 50% with respect to the control), using GraphPad Prism 5 Software (GraphPad Inc., San Diego, CA)[39]. Each experiment was carried out in quadruplicate. Standard deviations (SD) were shown.

[2] = tested on: MDA-MB-231 human breast cancer cells; assay: MTT cell viability, MDA-MB-231; assay type: cell-based; conditions: 72 h exposure, mean ± SD, read-out: Antiproliferative activity IC50, MDA-MB-231
Source text: as §1, §2

HeLa cells = assay: TUNEL assay in HeLa cells; assay type: cell-based, human; conditions: concentration equal to IC50, 24 h
Method: Apoptosis was detected by the TUNEL assay, according to the guidelines of the manufacturer (CF™488A TUNEL Assay Apoptosis Detection Kit, Biotium, Hayward, CA)[8]. Briefly, cells were grown on glass coverslips and, after treatment, they were washed trice with PBS, then methanol-fixed at −20 °C for 15 min. Fixed cells were washed trice with 0.01% (V/V) Triton X-100 in PBS and incubated with 100 µL of TUNEL equilibration buffer for 5 min. After its removal, 50 µL of TUNEL reaction mixture containing 1 µL of terminal deoxynucleotidyl transferase (TdT) were added to each sample and incubated in a dark and humidified chamber for 2 h at 37 °C. Samples were washed trice with ice-cold phosphate-buffered saline (PBS) containing 0.1% Triton X-100 and 5 mg/mL bovine serum albumin (BSA). 2-(4-Amidinophenyl)-6-indolecarbamidine dihydrochloride (DAPI) (0.2 µg/mL) counterstain was performed (10 min, 37 °C, dark and humidified conditions). After three additional washes with cold PBS, one drop of mounting solution was added, then they were observed and imaged under a fluorescence microscope (Leica DM 6000, Leica, Frankfurt am Main, Germany) (20× magnification) with excitation/emission wavelength maxima of 490 nm/515 nm (CF^TM488A) or 350 nm/460 nm (DAPI). Representative fields were shown. The experiments were repeated three times.

caspases 3 and 7 = assay: Caspase-Glo assay, caspases 3/7; assay type: cell-based, human; conditions: HeLa cells, concentration equal to IC50, 24 h
Method: Caspases-3/7, -8 and -9 activities were measured with the Caspase-Glo Assay, according to the guidelines of manufacturer (Caspase-Glo® 3/7, 8 and 9 Assay Systems, Promega Corporation, Madison, WI) as described in Iacopetta et al.[43].

hTopoII = hTopoII (Homo sapiens, UniProt P11388); assay: Human topoisomerase II decatenation assay; assay type: biochemical; conditions: 10 µM
Method: Human topoisomerase II decatenation assay: hTopoII decatenation assays were performed as reported in Iacopetta et al.[8].
Figure 2. hTopoII inhibition assay. kDNA was incubated with human Topoisomerase II in the absence (lane C, vehicle DMSO) or presence of compound 5c (lane 5c) or Ellipticine (lane E) at 10 and 50 µM, respectively. Lane K, kinetoplast DNA (kDNA).

[3] = tested on: ISHIKAWA human endometrial adenocarcinoma cells; assay: MTT cell viability, ISHIKAWA; assay type: cell-based; conditions: 72 h exposure, mean ± SD, read-out: Antiproliferative activity IC50, ISHIKAWA
Source text: as §1, §2

hTopoII, sequence (P11388 whole entry): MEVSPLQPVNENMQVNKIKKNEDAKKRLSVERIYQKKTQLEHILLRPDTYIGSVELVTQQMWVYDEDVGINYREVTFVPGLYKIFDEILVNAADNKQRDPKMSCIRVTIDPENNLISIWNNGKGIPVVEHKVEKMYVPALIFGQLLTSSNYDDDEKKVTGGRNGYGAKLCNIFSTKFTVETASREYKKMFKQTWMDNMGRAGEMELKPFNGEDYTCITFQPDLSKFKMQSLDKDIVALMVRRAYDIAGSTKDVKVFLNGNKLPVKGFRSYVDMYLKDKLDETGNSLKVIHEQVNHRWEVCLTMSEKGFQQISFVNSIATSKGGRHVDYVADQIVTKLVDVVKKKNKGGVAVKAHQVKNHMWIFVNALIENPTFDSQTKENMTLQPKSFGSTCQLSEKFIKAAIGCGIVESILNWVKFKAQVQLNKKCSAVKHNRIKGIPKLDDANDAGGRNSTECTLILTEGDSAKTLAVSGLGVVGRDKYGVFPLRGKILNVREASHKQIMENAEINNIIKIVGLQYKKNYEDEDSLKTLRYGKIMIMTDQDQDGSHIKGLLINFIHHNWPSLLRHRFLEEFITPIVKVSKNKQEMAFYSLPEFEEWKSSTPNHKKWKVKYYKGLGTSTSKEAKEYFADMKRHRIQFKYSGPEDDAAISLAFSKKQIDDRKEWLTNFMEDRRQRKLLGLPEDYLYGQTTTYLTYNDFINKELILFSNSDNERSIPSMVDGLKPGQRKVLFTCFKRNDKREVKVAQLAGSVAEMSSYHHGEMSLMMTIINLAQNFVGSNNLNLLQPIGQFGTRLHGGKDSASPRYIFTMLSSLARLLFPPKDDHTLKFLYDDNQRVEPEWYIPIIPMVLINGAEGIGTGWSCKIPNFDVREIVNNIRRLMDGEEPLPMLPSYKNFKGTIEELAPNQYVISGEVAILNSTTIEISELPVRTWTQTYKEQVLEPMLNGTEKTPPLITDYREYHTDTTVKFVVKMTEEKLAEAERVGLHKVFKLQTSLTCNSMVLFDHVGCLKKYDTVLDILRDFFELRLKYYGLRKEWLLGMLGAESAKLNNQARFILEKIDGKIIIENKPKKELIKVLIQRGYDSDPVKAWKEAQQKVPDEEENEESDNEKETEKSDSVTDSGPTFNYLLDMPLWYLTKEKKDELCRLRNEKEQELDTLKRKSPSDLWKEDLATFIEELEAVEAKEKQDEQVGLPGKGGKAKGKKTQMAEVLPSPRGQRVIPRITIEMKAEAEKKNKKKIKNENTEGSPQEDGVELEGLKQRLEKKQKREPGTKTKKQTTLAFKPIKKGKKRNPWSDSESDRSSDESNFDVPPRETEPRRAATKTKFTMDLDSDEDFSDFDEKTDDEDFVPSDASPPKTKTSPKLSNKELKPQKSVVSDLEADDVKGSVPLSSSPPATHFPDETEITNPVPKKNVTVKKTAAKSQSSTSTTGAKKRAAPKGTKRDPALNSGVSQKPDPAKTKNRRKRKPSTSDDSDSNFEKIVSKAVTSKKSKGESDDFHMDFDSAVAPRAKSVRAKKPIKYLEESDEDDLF

IC50 [2]: 27.2 ± 0.75 µM
hTopoII inhibition (kDNA decatenation) (hTopoII): able to inhibit hTopoII activity
IC50 [3]: 15.7 ± 0.95 µM
Compound: Cc1ccc(C)c2c1c1cc(Br)ccc1n2CCCCCCCS [5c, 7-(6-Bromo-1,4-dimethyl-9H-carbazol-9-yl)-heptane-1-thiol]
IC50 [1]: > 100 µM
apoptosis / DNA damage (TUNEL) (HeLa cells): induced DNA damage and led to cell death triggering the apoptotic mechanism
caspases 3 and 7 activity (caspases 3 and 7): clear increase of caspases 3 and 7 activity
